Molar potency and Relative molar potency data for five compounds are collected here from ChEMBL document CHEMBL1122074 (1982).

The source made the active and inactive calls. The rule behind the calls is not given here.

A short description of test [1]: Molar potency (1/IC50) in the guinea pig ileum divided by its potency in the mouse vas deferens. The class given is functional.
Test [2] addresses T1, Opioid receptor (Mus musculus) (UniProt P42866+P32300+P33534). Put plainly: In vitro relative potency to morphine (IC50, 4.4E-8M) in mouse vas deferens was determined; inactive (potentiates contraction at >/=1.6E-6M). The test is classed as functional, tissue-based.
Test [3] has as its target T1, Opioid receptor (Mus musculus). The experiment in a line: […] relative molar potency represents the morphine ED50 ([…])/compound ED50 using the hotplate procedure in mice; inactive at 140 umol/kg. The test is classed as functional.
The target of test [4] is Opioid receptors; mu/kappa/delta (Homo sapiens) (UniProt P41145+P41143+P35372). Put plainly: In vitro relative potency to morphine (IC50, 6.8E-8M) in guinea pig ileum was determined; inactive (potentiates contraction at >/=5.4E-8M). The note with it: Cavia porcellus, target entry is the homologue from another species. The test is classed as functional, tissue-based.
Chain of Opioid receptors; mu/kappa/delta (Homo sapiens) (P35372 whole entry, looked up): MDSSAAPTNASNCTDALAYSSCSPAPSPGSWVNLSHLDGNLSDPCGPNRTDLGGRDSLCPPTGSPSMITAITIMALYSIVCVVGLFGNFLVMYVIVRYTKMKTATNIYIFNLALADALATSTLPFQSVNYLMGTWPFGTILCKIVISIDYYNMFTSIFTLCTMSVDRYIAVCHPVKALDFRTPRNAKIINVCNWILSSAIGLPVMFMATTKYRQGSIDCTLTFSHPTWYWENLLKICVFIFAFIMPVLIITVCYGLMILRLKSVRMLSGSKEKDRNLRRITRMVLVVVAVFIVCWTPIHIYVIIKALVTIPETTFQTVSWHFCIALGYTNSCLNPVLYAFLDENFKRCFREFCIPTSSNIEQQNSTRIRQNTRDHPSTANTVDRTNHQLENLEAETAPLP
Chain of Opioid receptors; mu/kappa/delta (Homo sapiens) (P41143 whole entry, looked up): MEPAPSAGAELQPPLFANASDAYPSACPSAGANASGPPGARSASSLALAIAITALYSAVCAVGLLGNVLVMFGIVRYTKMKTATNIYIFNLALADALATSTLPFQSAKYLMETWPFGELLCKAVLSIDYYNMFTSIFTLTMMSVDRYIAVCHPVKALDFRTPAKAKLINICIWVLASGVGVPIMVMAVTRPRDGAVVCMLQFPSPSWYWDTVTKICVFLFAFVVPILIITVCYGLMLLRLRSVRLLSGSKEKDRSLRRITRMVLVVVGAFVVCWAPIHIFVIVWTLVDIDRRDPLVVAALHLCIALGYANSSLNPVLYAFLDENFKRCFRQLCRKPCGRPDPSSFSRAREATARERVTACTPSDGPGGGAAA
Chain of Opioid receptors; mu/kappa/delta (Homo sapiens) (P41145 whole entry, looked up): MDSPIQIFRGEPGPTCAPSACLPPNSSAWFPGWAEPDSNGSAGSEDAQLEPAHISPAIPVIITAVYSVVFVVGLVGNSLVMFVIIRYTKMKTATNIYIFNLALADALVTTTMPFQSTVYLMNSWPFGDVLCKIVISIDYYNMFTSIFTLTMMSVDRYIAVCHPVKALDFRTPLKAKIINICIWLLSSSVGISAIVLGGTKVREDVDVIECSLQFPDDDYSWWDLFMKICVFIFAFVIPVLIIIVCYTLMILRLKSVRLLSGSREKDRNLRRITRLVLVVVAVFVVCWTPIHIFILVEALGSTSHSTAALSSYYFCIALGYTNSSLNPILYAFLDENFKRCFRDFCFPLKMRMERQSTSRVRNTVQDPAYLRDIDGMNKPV

T1 sequence (P32300 whole entry, looked up): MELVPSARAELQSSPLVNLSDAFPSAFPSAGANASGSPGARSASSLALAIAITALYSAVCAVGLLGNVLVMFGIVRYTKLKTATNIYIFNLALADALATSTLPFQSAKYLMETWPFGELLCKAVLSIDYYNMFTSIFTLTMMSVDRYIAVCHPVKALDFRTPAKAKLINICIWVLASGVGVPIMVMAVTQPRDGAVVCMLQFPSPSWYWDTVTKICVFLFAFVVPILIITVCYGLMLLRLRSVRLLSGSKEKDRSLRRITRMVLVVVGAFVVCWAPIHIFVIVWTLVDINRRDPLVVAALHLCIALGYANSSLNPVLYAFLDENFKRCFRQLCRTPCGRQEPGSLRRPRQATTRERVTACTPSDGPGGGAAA
T1 sequence (P33534 whole entry, looked up): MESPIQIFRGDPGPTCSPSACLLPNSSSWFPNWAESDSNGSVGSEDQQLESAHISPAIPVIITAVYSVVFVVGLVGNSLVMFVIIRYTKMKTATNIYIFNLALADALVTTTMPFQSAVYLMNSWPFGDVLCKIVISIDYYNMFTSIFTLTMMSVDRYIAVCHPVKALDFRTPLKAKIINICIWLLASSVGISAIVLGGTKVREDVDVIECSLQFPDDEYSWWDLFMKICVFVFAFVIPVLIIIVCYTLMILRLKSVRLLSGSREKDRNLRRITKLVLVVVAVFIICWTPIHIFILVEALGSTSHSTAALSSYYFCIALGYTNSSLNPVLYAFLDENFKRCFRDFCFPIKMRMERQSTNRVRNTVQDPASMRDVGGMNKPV
T1 sequence (P42866 whole entry, looked up): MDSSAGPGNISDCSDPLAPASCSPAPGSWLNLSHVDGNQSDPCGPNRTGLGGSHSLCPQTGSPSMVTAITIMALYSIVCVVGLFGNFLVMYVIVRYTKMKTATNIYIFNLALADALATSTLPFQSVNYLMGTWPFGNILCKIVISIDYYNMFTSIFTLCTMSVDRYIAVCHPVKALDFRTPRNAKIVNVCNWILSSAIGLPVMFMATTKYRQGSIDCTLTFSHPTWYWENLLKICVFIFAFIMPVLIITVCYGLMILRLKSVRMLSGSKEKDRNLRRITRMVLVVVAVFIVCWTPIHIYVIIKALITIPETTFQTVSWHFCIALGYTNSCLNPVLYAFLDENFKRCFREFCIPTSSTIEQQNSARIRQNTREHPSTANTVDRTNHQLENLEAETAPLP

As for `CN1CC[C@]23c4c5ccc(O)c4O[C@H]2[C@@H](O)C=C[C@H]3[C@H]1C5` [MORPHINE], the Molar potency in test [1] is reported as 6.5.
`CCC(=O)C(c1ccccc1)(c1ccccc1)[C@H](C)[C@H](C)N(C)C` (single isomer, unassigned) returned a Molar potency in test [1] of 1.7.
Still for that read-out and setting: for `CCC(=O)C(c1ccccc1)(c1ccccc1)[C@@H](C)[C@@H](C)N(C)C` (single isomer, unassigned) the value was 6.9; for `CCC(=O)C(c1ccccc1)(c1ccccc1)C(C)CN(C)C` (single isomer, unassigned), 2.3.
As for `CCC(=O)C(c1ccccc1)(c1ccccc1)[C@@H](C)[C@H](C)N(C)C` (racemic), the Relative molar potency entry in test [2], in test [3] and in test [4] was “inactive” throughout.
